Data as given in patent publication US10144726B2, “Modulators of the p70S6 kinase for use in the treatment of brain disorders and triple-negative breast cancer” (SENTINEL ONCOLOGY LIMITED, priority 2015, dated 2018).
Where two headings read alike, the source gives them in different places.

Experiments:
MDA-MB-231 (luc) cells = assay: Control of brain metastases arising from MDA-MB-231 (luc) cells after intra-cardiac injection; type: in vivo
Excerpt: In order to test the efficacy of an inhibitor of S6K1 in preventing brain metastases arising from TNBC cells, an in vivo mouse model was established:
Using a luciferase-tagged TNBC cell line (MDA-MB-231 (luc)) it was possible to track the spread of metastatic cells to the brain and other major organs via mouse whole-body imaging.
The MDA-MB-231(luc) cell-line was derived from MDA-MB-231 cells originally purchased from ATCC. These cells were stably transfected with pGL4.51 (Promega) using Lipofectamine 2000 (Life Technologies). Stably transfected colonies were selected for using neomycin and the most highly expressing clone was expanded. The cells have similar in vivo growth characteristics as the parental MDA-MB-231 cells.
Female athymic mice (Hsd:Athymic Nude-Foxn1^nu) were purchased from Harlan (UK) and acclimatised for 7 days prior to study commencement. Animals were housed in
The dosing route was p.o. and the formulation was as follows: 10% DMSO/90% hydroxypropyl-β-cyclodextrin (20% w/v aqueous)
On day 0 animals were anaesthetized and injected with 1×10^5 MDA-MB-231 (luc) cells directly into the heart. Intra-cardiac injection was chosen as this method leads to brain metastases. On day +1 animals were imaged using a Xenogen IVIS machine (following IP injection of 150 mg/kg) of D-luciferin). Evidence of light only in the cardiac area was indicative of a failed implantation and these animals were removed from the study. The experiment was commenced with 7 animals per treatment group to guarantee 5 animals per group completed the study.
Animals were imaged on 3 occasions during the study: 24 hours following intracardiac injection, 35 days after implantation and at the end of the study (70 days after implantation). For imaging, animals were first injected i.p. with D-luciferin (150 mg/kg) and 10 minutes later the animals were imaged under anaesthesia.
At the end of the 70 days, animals were imaged using the same method as described at 35 days. Following this the animals were then sacrificed and brain, liver and lungs were removed and imaged individually for metastatic spread.

[1] = test system: phosphorylation of S6 Ser235/236 in MCF-7 cells; assay: MCF-7 pS6 ELISA (phosphorylation of S6 Ser235/236); type: cell-based; conditions: Homo sapiens, MCF7; S6 Ser235/236, 1% FBS, 2 h; read-out: (b) MCF-7 pS6 ELISA IC50
Experimental: The following assay provides IC50 values for inhibition of P70S6K activity in a whole cell assay by determining effects on the phosphorylation of S6^Ser235/236 in MCF-7 cells by ELISA.
The following protocol was used: • 1) MCF-7 cells were seeded in 96-well plates at a density of 7000 cells per well and allowed to adhere for 6 h in media containing 10% FBS. • 2) The full serum media was replaced and cells incubated overnight in media containing 1% FBS, prior to addition of test compounds. • 3) Test compounds were prepared from 10 mM DMSO stocks to give final concentration ranges as indicated on graphs. DMSO was constant at a final concentration of 1%. • 4) Test compounds were incubated with cells in duplicate for 2 h at 37° C/5% CO2 in a humidified atmosphere. • 5) The media was removed and cells were lysed by freeze-thawing in cell lysis buffer. • 6) Detection of phosphorylated S6Ser235/236 was then carried out using a PathScan ELISA kit (Cell Signaling Technology #7205). • 7) Lysates were diluted 1:1 with sample diluent before being applied to wells coated with an antibody against phosphorylated-S6 protein. • 8) The ELISA was then performed as stated in the manufacturers' instructions. • 9) The raw data were normalised to control values and analysed using a 4-parameter logistic equation in GraphPad Prism.

[2] = Brain and plasma concentrations in an in vivo cassette mouse model; design: species or system male CD-1 mice; conditions: male, PO cassette, 2.5 mg/kg per compound
Experimental: The compounds of this invention were evaluated in an in vivo cassette mouse model to determine brain and plasma concentrations following oral dosing. This is an industry-standard and recognised means to assess brain penetration of small molecules (for recent literature article, refer to In vitro permeability analysis, pharmacokinetic and brain distribution study in mice of imperatorin, isoimperatorin and cnidilin in Radix Angelicae Dahuricae, Fitoterapia, Volume 85, March 2013 , Pages 144-153). It is also recognised that higher brain concentrations (and higher ratios of brain: plasma concentration) lead to greater exposure in the brain—this is clearly advantageous if the brain is the site of action.
For a single cassette study, male CD-1 mice were used (n=3 per timepoint, two timepoints: 1.0 hr and 3.0 hr).
5 compounds were dosed PO per cassette (dose level 2.5 mg/kg per compound, dose conc. 0.25 mg/ml, dose volume 10.0 ml/kg).
Formulation used to solubilize compounds: 10% DMSO/90% hydroxypropyl-β-cyclodextrin (20% w/v aqueous)
Sampling was terminal and plasma and brain matrices were generated. To prepare plasma samples, protein was precipitated using acetonitrile. To prepare brain samples, homogenisation and protein precipitation was performed with acetonitrile. Samples were analysed using HPLC-TOF MS using electrospray ionisation.

Q: With `C[C@@H](Nc1cnc2cc(-c3cn[nH]c3)ccc2n1)c1cccc(Cl)c1` [Example 15] as the molecule, how does the “Incidence of metastasis Brain” value (MDA-MB-231 (luc) cells; 125 mg/kg p.o. BID x 70 days) read?
A: 0%

Q: And the “Incidence of metastasis Liver” value (MDA-MB-231 (luc) cells; 125 mg/kg p.o. BID x 70 days)?
A: 0%

Q: What about the “Incidence of metastasis Lung” value (MDA-MB-231 (luc) cells; 125 mg/kg p.o. BID x 70 days) of the same molecule?
A: 40%

Q: And the “No. deaths on study” value (MDA-MB-231 (luc) cells; 125 mg/kg p.o. BID x 70 days)?
A: 0

Q: And the “Animals with visible metastases, whole body imaging” value (MDA-MB-231 (luc) cells; 125 mg/kg p.o. BID, at 35 days)?
A: 0 out of 5

Q: What about the Tolerability (MDA-MB-231 (luc) cells; 70 consecutive days of BID dosing, no treatment related deaths or adverse clinical signs) of the same molecule?
A: well-tolerated

Q: And the IC50 [1]?
A: 500 nM

Q: And the concentration at 3 h ([2]; CD-1, brain, read-out: (d) Brain conc. at 3 hours)?
A: 2430 nM

Q: What about the Kp at 3 h ([2]; CD-1, brain, read-out: (d) Brain: Plasma ratio at 3 hours) of the same molecule?
A: 2

Q: What about the concentration at 3 h ([2]; CD-1, plasma, read-out: (d) Plasma conc. at 3 hours) of the same molecule?
A: 1190 nM
